# PubChem BioAssay AID1963438 (Molecular Pharmacology Branch, DTP, NCI, 2024)
# Where “and” joins values, the source holds several entries; their conditions need not be identical. Equal values may be shown once.
# Tested on: NCI-H510 multicellular tumor spheroid growth, % test/control
# Assay: Anticancer human tumor NCI-H510 cell line growth inhibition [Asc];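 note: spheroids exposed to agents for 7 days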;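 for viability, T/C: 100% = DMSO vehicle control wells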
# Conditions: for viability, T/C: stronger effect = lower value
# Procedure, shortened: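 Complex solid-tumor spheroids incorporating human endothelial and mesenchymal stem cells received single agents or combinations over half-log dilution ranges anchored to clinical Cmax.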
# [1] = curve of first compound, second compound 0.1 µM
# [2] = curve of first compound, second compound 0.316 µM
# [3] = curve of first compound, second compound 1 µM
# [4] = second compound 0.1 µM, first compound 0.00316 µM
# [5] = second compound 0.1 µM, first compound 0.01 µM
# [6] = second compound 0.1 µM, first compound 0.0316 µM
# [7] = second compound 0.1 µM, first compound 0.1 µM
# [8] = second compound 0.316 µM, first compound 0.00316 µM
# [9] = second compound 0.316 µM, first compound 0.01 µM
# [10] = second compound 0.316 µM, first compound 0.0316 µM
# [11] = second compound 0.316 µM, first compound 0.1 µM
# [12] = second compound 1 µM, first compound 0.00316 µM
# [13] = second compound 1 µM, first compound 0.01 µM
# [14] = second compound 1 µM, first compound 0.0316 µM
# [15] = second compound 1 µM, first compound 0.1 µM
structure (smiles),measurement,setting,value
C=CC(=O)N1CCN(c2nc(=O)n(-c3c(C)ccnc3C(C)C)c3nc(-c4c(O)cccc4F)c(F)cc23)C(C)C1 (centres undefined) + CCN1C(C(=O)NC23CCC(C(=O)O)(CC2)CC3)C(c2cccc(Cl)c2F)C2(C(=O)Nc3cc(Cl)ccc32)C12CCCCC2,IC50,"curve of first compound, second compound 0.03 µM",> 10000 nM
same,IC50,"curve of first compound, second compound 0.0949 µM",> 10000 nM
same,IC50,"curve of first compound, second compound 0.3 µM",> 10000 nM
same,IC50,"curve of first compound, second compound 0.949 µM",> 10000 nM
same,IC50,"curve of first compound, second compound 3 µM",> 10000 nM
same,"viability, T/C","second compound 0.03 µM, first compound 0.0316 µM",70.7%
same,"viability, T/C","second compound 0.03 µM, first compound 0.1 µM",108%
same,"viability, T/C","second compound 0.03 µM, first compound 0.316 µM",81%
same,"viability, T/C","second compound 0.03 µM, first compound 1 µM",100%
same,"viability, T/C","second compound 0.03 µM, first compound 3.16 µM",90.2%
same,"viability, T/C","second compound 0.03 µM, first compound 10 µM",98.3%
same,"viability, T/C","second compound 0.0949 µM, first compound 0.0316 µM",117%
same,"viability, T/C","second compound 0.0949 µM, first compound 0.1 µM",117%
same,"viability, T/C","second compound 0.0949 µM, first compound 0.316 µM",98.5%
same,"viability, T/C","second compound 0.0949 µM, first compound 1 µM",105%
same,"viability, T/C","second compound 0.0949 µM, first compound 3.16 µM",96.8%
same,"viability, T/C","second compound 0.0949 µM, first compound 10 µM",89.5%
same,"viability, T/C","second compound 0.3 µM, first compound 0.0316 µM",90.3%
same,"viability, T/C","second compound 0.3 µM, first compound 0.1 µM",103%
same,"viability, T/C","second compound 0.3 µM, first compound 0.316 µM",91.5%
same,"viability, T/C","second compound 0.3 µM, first compound 1 µM",101%
same,"viability, T/C","second compound 0.3 µM, first compound 3.16 µM",98.4%
same,"viability, T/C","second compound 0.3 µM, first compound 10 µM",95.6%
same,"viability, T/C","second compound 0.949 µM, first compound 0.0316 µM",100%
same,"viability, T/C","second compound 0.949 µM, first compound 0.1 µM",107%
same,"viability, T/C","second compound 0.949 µM, first compound 0.316 µM",109%
same,"viability, T/C","second compound 0.949 µM, first compound 1 µM",104%
same,"viability, T/C","second compound 0.949 µM, first compound 3.16 µM",91.3%
same,"viability, T/C","second compound 0.949 µM, first compound 10 µM",92.4%
same,"viability, T/C","second compound 3 µM, first compound 0.0316 µM",116%
same,"viability, T/C","second compound 3 µM, first compound 0.1 µM",97.8%
same,"viability, T/C","second compound 3 µM, first compound 0.316 µM",85.3%
same,"viability, T/C","second compound 3 µM, first compound 1 µM",101%
same,"viability, T/C","second compound 3 µM, first compound 3.16 µM",103%
same,"viability, T/C","second compound 3 µM, first compound 10 µM",79.2%
O=C(c1cc(Cc2n[nH]c(=O)c3ccccc23)ccc1F)N1CCN(C(=O)C2CC2)CC1,"viability, T/C",compound 0.0316 µM,93% and 95.9% and 99.4%
same,"viability, T/C",compound 0.1 µM,101% and 80.6% and 86.1%
same,"viability, T/C",compound 0.316 µM,69.5% and 59% and 83.9%
same,"viability, T/C",compound 1 µM,60% and 90.4% and 76.8%
same,"viability, T/C",compound 3.16 µM,29% and 43.1% and 88%
same,IC50,curve of compound,1300 nM and 2570 nM and > 10000 nM
NC1CCC(NC2CC2c2ccccc2)CC1 (centres undefined) + Cc1c(S(C)(=O)=O)c(-c2cc(F)cc(N3CCN(c4ccc(NS(=O)(=O)c5ccc(NC(CCN6CCC(C(=O)OCCCP(=O)(O)O)CC6)CSc6ccccc6)c(S(=O)(=O)C(F)(F)F)c5)cc4)CC3)c2)c(-c2ccc(Cl)cc2)n1C(C)C,IC50,[1],> 100 nM
same,IC50,[2],> 100 nM
same,IC50,[3],> 100 nM
same,IC50,"curve of first compound, second compound 3.16 µM",> 100 nM
same,IC50,"curve of first compound, second compound 10 µM",> 100 nM
same,"viability, T/C","second compound 0.1 µM, first compound 0.000316 µM",88.8%
same,"viability, T/C","second compound 0.1 µM, first compound 0.001 µM",85%
same,"viability, T/C",[4],74.1%
same,"viability, T/C",[5],87.7%
same,"viability, T/C",[6],67.5%
same,"viability, T/C",[7],90.4%
same,"viability, T/C","second compound 0.316 µM, first compound 0.000316 µM",86.1%
same,"viability, T/C","second compound 0.316 µM, first compound 0.001 µM",85.8%
same,"viability, T/C",[8],76.9%
same,"viability, T/C",[9],66.5%
same,"viability, T/C",[10],78.4%
same,"viability, T/C",[11],97.9%
same,"viability, T/C","second compound 1 µM, first compound 0.000316 µM",116%
same,"viability, T/C","second compound 1 µM, first compound 0.001 µM",77.8%
same,"viability, T/C",[12],63.8%
same,"viability, T/C",[13],67.1%
same,"viability, T/C",[14],64%
same,"viability, T/C",[15],59.6%
same,"viability, T/C","second compound 3.16 µM, first compound 0.000316 µM",81%
same,"viability, T/C","second compound 3.16 µM, first compound 0.001 µM",80.2%
same,"viability, T/C","second compound 3.16 µM, first compound 0.00316 µM",74.8%
same,"viability, T/C","second compound 3.16 µM, first compound 0.01 µM",67.1%
same,"viability, T/C","second compound 3.16 µM, first compound 0.0316 µM",80.6%
same,"viability, T/C","second compound 3.16 µM, first compound 0.1 µM",69.9%
same,"viability, T/C","second compound 10 µM, first compound 0.000316 µM",66.8%
same,"viability, T/C","second compound 10 µM, first compound 0.001 µM",63.1%
same,"viability, T/C","second compound 10 µM, first compound 0.00316 µM",63.6%
same,"viability, T/C","second compound 10 µM, first compound 0.01 µM",91%
same,"viability, T/C","second compound 10 µM, first compound 0.0316 µM",102%
same,"viability, T/C","second compound 10 µM, first compound 0.1 µM",36.1%
COc1c(OCCCN2CCOCC2)ccc2c3n(c(=NC(=O)c4cnc(N)nc4)nc12)CCN3 + CNC(C)C(=O)NC1CN(S(=O)(=O)c2cccc(S(=O)(=O)N3CCC4CCC(C(=O)NC(c5ccccc5)c5ccccc5)N4C(=O)C(NC(=O)C(C)NC)C3)c2)CCC2CCC(C(=O)NC(c3ccccc3)c3ccccc3)N2C1=O,IC50,"curve of first compound, second compound 0.01 µM",> 1000 nM
same,IC50,"curve of first compound, second compound 0.0316 µM",> 1000 nM
same,IC50,[1],> 1000 nM
same,IC50,[2],> 1000 nM
same,IC50,[3],> 1000 nM
same,"viability, T/C","second compound 0.01 µM, first compound 0.00316 µM",119%
same,"viability, T/C","second compound 0.01 µM, first compound 0.01 µM",104%
same,"viability, T/C","second compound 0.01 µM, first compound 0.0316 µM",118%
same,"viability, T/C","second compound 0.01 µM, first compound 0.1 µM",130%
same,"viability, T/C","second compound 0.01 µM, first compound 0.316 µM",127%
same,"viability, T/C","second compound 0.01 µM, first compound 1 µM",128%
same,"viability, T/C","second compound 0.0316 µM, first compound 0.00316 µM",106%
same,"viability, T/C","second compound 0.0316 µM, first compound 0.01 µM",114%
same,"viability, T/C","second compound 0.0316 µM, first compound 0.0316 µM",125%
same,"viability, T/C","second compound 0.0316 µM, first compound 0.1 µM",117%
same,"viability, T/C","second compound 0.0316 µM, first compound 0.316 µM",120%
same,"viability, T/C","second compound 0.0316 µM, first compound 1 µM",113%
same,"viability, T/C",[4],92.2%
same,"viability, T/C",[5],109%
same,"viability, T/C",[6],106%
same,"viability, T/C",[7],128%
same,"viability, T/C","second compound 0.1 µM, first compound 0.316 µM",112%
same,"viability, T/C","second compound 0.1 µM, first compound 1 µM",125%
same,"viability, T/C",[8],115%
same,"viability, T/C",[9],104%
same,"viability, T/C",[10],108%
same,"viability, T/C",[11],105%
same,"viability, T/C","second compound 0.316 µM, first compound 0.316 µM",121%
same,"viability, T/C","second compound 0.316 µM, first compound 1 µM",109%
same,"viability, T/C",[12],107%
same,"viability, T/C",[13],113%
same,"viability, T/C",[14],112%
same,"viability, T/C",[15],139%
same,"viability, T/C","second compound 1 µM, first compound 0.316 µM",116%
same,"viability, T/C","second compound 1 µM, first compound 1 µM",110%
CCN1C(C(=O)NC23CCC(C(=O)O)(CC2)CC3)C(c2cccc(Cl)c2F)C2(C(=O)Nc3cc(Cl)ccc32)C12CCCCC2 (centres undefined),"viability, T/C",compound 0.00949 µM,103% and 92.8%
same,IC50,"compound alone, run of 10/11/2022",> 3000 nM
same,IC50,curve of compound,> 3000 nM
NC(=O)C(=Cn1cnc(-c2cc(C(F)(F)F)cc(C(F)(F)F)c2)n1)c1cncnc1,"viability, T/C",compound 0.000949 µM,91.3% and 79.1% and 81.8%
same,"viability, T/C",compound 0.003 µM,95.1% and 92.5% and 90.3%
same,"viability, T/C",compound 0.00949 µM,97.5% and 68.2% and 97.9%
same,"viability, T/C",compound 0.03 µM,87.7% and 81.1% and 98%
same,"viability, T/C",compound 0.0949 µM,76% and 44% and 86.5%
same,"viability, T/C",compound 0.3 µM,14.6% and 47% and 69.7%
same,IC50,curve of compound,154 nM and 81.7 nM and > 300 nM
Cn1ncnc1[C@H]1c2n[nH]c(=O)c3cc(F)cc(c23)N[C@@H]1c1ccc(F)cc1,"viability, T/C",compound 0.000316 µM,106% and 114% (2×)
same,"viability, T/C",compound 0.001 µM,98.2% and 93.5% and 70.4%
same,"viability, T/C",compound 0.00316 µM,80.9% and 92.1% and 86.5%
same,"viability, T/C",compound 0.01 µM,23.2% and 96.1% and 24.8%
same,"viability, T/C",compound 0.0316 µM,14.6% and 83.9% and 22.1%
same,"viability, T/C",compound 0.1 µM,12.7% and 99.4% and 18.4%
O=C(c1ccc(F)c(F)c1Nc1ccc(I)cc1F)N1CC(O)([C@@H]2CCCCN2)C1,"viability, T/C",compound 0.00316 µM,80.5% and 85.3% and 98%
same,"viability, T/C",compound 0.01 µM,119% and 91% and 90.4%
same,"viability, T/C",compound 0.0316 µM,95.7% and 106% and 86.9%
same,"viability, T/C",compound 0.1 µM,97.4% and 102% and 86.8%
same,"viability, T/C",compound 0.316 µM,110% and 89% and 87.3%
same,"viability, T/C",compound 1 µM,72.5% and 86% and 83.7%
same,IC50,curve of compound,> 1000 nM
